In brackets after ≈: the same amount, converted by molar mass. Several values for one entry are separate records, joined by “and”; a condition that tells them apart may be missing. Equal values may be shown once. Read-outs that look alike come from different tables or passages of the source.
Tests used:
Ureaplasma species [1] = conditions: Ureaplasma urealyticum ATCC 33175; CLSI M43-A acceptable QC range; cited from earlier work
Mycoplasma genitalium = assay: microbe, parasite or virus in culture; format: cell-based; conditions: for MIC: Mycoplasmoides genitalium
Mycoplasma pneumoniae = assay: Broth microdilution MIC assay (CLSI M43-A), M. pneumoniae; format: cell-based; conditions: for MIC: read-out: MIC
Mycoplasma hominis = assay: microbe, parasite or virus in culture; format: cell-based
Ureaplasma species [2] = assay: microbe, parasite or virus in culture; format: cell-based, Ureaplasma urealyticum, Ureaplasma parvum; conditions: for MIC50 / MIC90 / MIC: Ureaplasma; for MIC: ATCC33175
[3] = tested on: Burkholderia pseudomallei; assay: microbe, parasite or virus in culture; format: cell-based
Burkholderia mallei = assay: microbe, parasite or virus in culture; format: cell-based
Yersinia pestis = assay: microbe, parasite or virus in culture; format: cell-based
Francisella tularensis = assay: microbe, parasite or virus in culture; format: cell-based
Bacillus anthracis = assay: microbe, parasite or virus in culture; format: cell-based
Brucella melitensis = assay: microbe, parasite or virus in culture; format: cell-based
Brucella suis = assay: microbe, parasite or virus in culture; format: cell-based
Brucella abortus = assay: microbe, parasite or virus in culture; format: cell-based
[4] = M. pneumoniae M-129 QC Strain ATCC 29342-B7
[5] = M. pneumoniae isolate 54484, macrolide-resistant
[6] = M. pneumoniae isolate 54506, macrolide-resistant

## CC[C@H]1OC(=O)[C@H](C)C(=O)[C@H](C)[C@@H](O[C@@H]2O[C@H](C)C[C@H](N(C)C)[C@H]2O)[C@](C)(OC)C[C@@H](C)C(=O)[C@H](C)[C@H]2N(CCCCn3cnc(-c4cccnc4)c3)C(=O)O[C@]12C [Telithromycin]
Ureaplasma species [1]
  MIC Limits for Quality Control Strain: 0.125 to 1 µg/mL

## C[C@@H]1CN2c3c(cc4c(N5C(=O)OC[C@@H]5C)noc4c3F)CC3(C(=O)NC(=O)NC3=O)[C@H]2[C@H](C)O1 [Compound 1, (2R,4S,4aS)-11-fluoro-2,4-dimethyl-8-[(4S)-4-methyl-2-oxo-1,3-oxazolidin-3-yl]-1,2,4,4a-tetrahydro-2′H,6H-spiro[1,4-oxazino[4,3-a][1,2]oxazolo[4,5-g]quinoline-5,5′-pyrimidine]-2′,4′,6′(1′H,3′H)-trione]
Mycoplasma genitalium
  MIC: 0.5 µg/mL (≈ 1.03 µM)
Mycoplasma genitalium; ATCC33530
  MIC: 0.5 µg/mL (≈ 1.03 µM)
Mycoplasma genitalium; ATCC49895
  MIC: 1 µg/mL (≈ 2.05 µM)
Mycoplasma genitalium; ATCC49899
  MIC: 0.5 µg/mL (≈ 1.03 µM)
Mycoplasma pneumoniae; M. pneumoniae
  MIC90 relative to doxycycline (fold higher): 4 fold
Mycoplasma pneumoniae; [4]
  MIC: 0.5 µg/mL (≈ 1.03 µM)
Mycoplasma pneumoniae; M. pneumoniae isolate 51494
  MIC: 0.5 µg/mL (≈ 1.03 µM)
Mycoplasma pneumoniae; M. pneumoniae isolate 53706
  MIC: 0.5 µg/mL (≈ 1.03 µM)
Mycoplasma pneumoniae; M. pneumoniae isolate 53938
  MIC: 0.5 µg/mL (≈ 1.03 µM)
Mycoplasma pneumoniae; [5]
  MIC: 0.5 µg/mL (≈ 1.03 µM)
Mycoplasma pneumoniae; [6]
  MIC: 0.5 µg/mL (≈ 1.03 µM)
Mycoplasma pneumoniae; M. pneumoniae isolate 55246
  MIC: 1 µg/mL (≈ 2.05 µM)
Mycoplasma pneumoniae; M. pneumoniae isolate 55612
  MIC: 1 µg/mL (≈ 2.05 µM)
Mycoplasma pneumoniae; M. pneumoniae isolate 57807
  MIC: 0.5 µg/mL (≈ 1.03 µM)
Mycoplasma pneumoniae; M. pneumoniae isolate 58188
  MIC: 0.5 µg/mL (≈ 1.03 µM)
Mycoplasma pneumoniae; M. pneumoniae isolate 58772
  MIC: 0.5 µg/mL (≈ 1.03 µM)
Mycoplasma pneumoniae; M. pneumoniae isolate 59597
  MIC: 0.5 µg/mL (≈ 1.03 µM)
Mycoplasma pneumoniae; M. pneumoniae isolate 59598
  MIC: 0.5 µg/mL (≈ 1.03 µM)
Mycoplasma pneumoniae; M. pneumoniae isolates, n = 12
  MIC50: 0.5 µg/mL (≈ 1.03 µM)
  MIC90: 1 µg/mL (≈ 2.05 µM)
Mycoplasma pneumoniae; two macrolide-resistant M. pneumoniae isolates
  in vitro potency against macrolide-resistant versus macrolide-susceptible isolates: maintained in vitro potency
Mycoplasma hominis
  MIC90 relative to levofloxacin (fold greater): 16 fold
  MIC Range: 1 to 8 µg/mL
  effect of presence of tetM on MICs: not affected by the presence of tetM
Mycoplasma hominis; Metamycoplasma hominis
  MIC50: 2 µg/mL (≈ 4.1 µM)
  MIC90: 4 µg/mL (≈ 8.21 µM)
Mycoplasma hominis; Metamycoplasma hominis, read-out: maximum MIC value
  MIC: 8 µg/mL (≈ 16.4 µM)
Ureaplasma species [2]
  MIC90 potency relative to azithromycin (fold more potent / lower MIC90): 4 fold
  MIC range for isolates containing tetM: 0.5 to 2 µg/mL
  difference in MICs, levofloxacin-resistant versus levofloxacin-susceptible isolates: no difference
  MIC50: 0.5 µg/mL (≈ 1.03 µM)
  MIC90: 1 µg/mL (≈ 2.05 µM)
  MIC: 0.5 µg/mL (≈ 1.03 µM)
[3]
  MIC: 64 µg/mL (≈ 131 µM)
  MIC90: >64 µg/mL
[3]; Burkholderia pseudomallei
  MIC: 32 µg/mL (≈ 65.6 µM)
  MIC50: 32 µg/mL (≈ 65.6 µM)
  MIC90: 64 µg/mL (≈ 131 µM)
Burkholderia mallei; Burkholderia mallei
  MIC90: 32 µg/mL (≈ 65.6 µM)
Yersinia pestis
  MIC50: 4 µg/mL (≈ 8.21 µM)
Yersinia pestis; Yersinia pestis
  MIC50: 2 µg/mL (≈ 4.1 µM)
Francisella tularensis
  MIC: 8 µg/mL (≈ 16.4 µM)
  MIC Range: 8 to 16 µg/mL
Francisella tularensis; Francisella tularensis
  MIC: 16 µg/mL (≈ 32.8 µM)
  MIC50: 16 µg/mL (≈ 32.8 µM)
  MIC90: 16 µg/mL (≈ 32.8 µM)
Bacillus anthracis
  MIC90: 1 µg/mL (≈ 2.05 µM)
  MIC Range: 0.12 to 1 µg/mL and 0.12 to 4 µg/mL
Bacillus anthracis; Bacillus anthracis
  MIC50: 0.25 µg/mL (≈ 0.513 µM)
  MIC90: 0.5 µg/mL (≈ 1.03 µM)
Brucella melitensis
  MIC: 16 µg/mL (≈ 32.8 µM)
Brucella melitensis; Brucella melitensis
  MIC: 8 µg/mL (≈ 16.4 µM)
Brucella suis
  MIC: 1 µg/mL (≈ 2.05 µM)
  MIC Range: 1 to 2 µg/mL
Brucella suis; Brucella suis
  MIC: 2 µg/mL (≈ 4.1 µM)
  MIC50: 1 µg/mL (≈ 2.05 µM)
  MIC90: 2 µg/mL (≈ 4.1 µM)

## CN(C)[C@@H]1C(O)=C(C(N)=O)C(=O)[C@@]2(O)C(O)=C3C(=O)c4c(O)cccc4[C@@](C)(O)[C@H]3C[C@@H]12 [Tetracycline]
Mycoplasma hominis
  MICs for isolates with tetM: 32 µg/mL

## C[C@H]1COc2c(N3CCN(C)CC3)c(F)cc3c(=O)c(C(=O)O)cn1c23 [Levofloxacin]
Mycoplasma genitalium
  MIC Range: 0.5 to 2 µg/mL
  MIC: 0.5 µg/mL (≈ 1.38 µM)
Mycoplasma genitalium; ATCC33530
  MIC: 2 µg/mL (≈ 5.53 µM)
Mycoplasma genitalium; ATCC49895
  MIC: 2 µg/mL (≈ 5.53 µM)
Mycoplasma genitalium; ATCC49899
  MIC: 2 µg/mL (≈ 5.53 µM)
Mycoplasma pneumoniae; [4]
  MIC: 1 µg/mL (≈ 2.77 µM)
Mycoplasma pneumoniae; M. pneumoniae isolate 51494
  MIC: 1 µg/mL (≈ 2.77 µM)
Mycoplasma pneumoniae; M. pneumoniae isolate 53706
  MIC: 0.5 µg/mL (≈ 1.38 µM)
Mycoplasma pneumoniae; M. pneumoniae isolate 53938
  MIC: 1 µg/mL (≈ 2.77 µM)
Mycoplasma pneumoniae; [5]
  MIC: 0.5 µg/mL (≈ 1.38 µM)
Mycoplasma pneumoniae; [6]
  MIC: 0.5 µg/mL (≈ 1.38 µM)
Mycoplasma pneumoniae; M. pneumoniae isolate 55246
  MIC: 1 µg/mL (≈ 2.77 µM)
Mycoplasma pneumoniae; M. pneumoniae isolate 55612
  MIC: 0.5 µg/mL (≈ 1.38 µM)
Mycoplasma pneumoniae; M. pneumoniae isolate 57807
  MIC: 0.5 µg/mL (≈ 1.38 µM)
Mycoplasma pneumoniae; M. pneumoniae isolate 58188
  MIC: 0.5 µg/mL (≈ 1.38 µM)
Mycoplasma pneumoniae; M. pneumoniae isolate 58772
  MIC: 1 µg/mL (≈ 2.77 µM)
Mycoplasma pneumoniae; M. pneumoniae isolate 59597
  MIC: 0.5 µg/mL (≈ 1.38 µM)
Mycoplasma pneumoniae; M. pneumoniae isolate 59598
  MIC: 1 µg/mL (≈ 2.77 µM)
Mycoplasma pneumoniae; M. pneumoniae isolates, n = 12
  MIC50: 0.5 µg/mL (≈ 1.38 µM)
  MIC90: 1 µg/mL (≈ 2.77 µM)
  MIC Range: 0.5 to 1 µg/mL
Mycoplasma hominis
  MIC Range: 0.063 to 0.25 µg/mL
Mycoplasma hominis; Metamycoplasma hominis
  MIC50: 0.125 µg/mL (≈ 0.346 µM)
  MIC90: 0.25 µg/mL (≈ 0.692 µM)
Ureaplasma species [2]
  MIC Range: 0.25 to 32 µg/mL
  MIC50: 1 µg/mL (≈ 2.77 µM)
  MIC90: 8 µg/mL (≈ 22.1 µM)
  MIC: 1 µg/mL (≈ 2.77 µM)
Burkholderia mallei
  MIC: 0.5 µg/mL and 0.25 µg/mL
Brucella abortus
  MIC: 0.25 µg/mL (≈ 0.692 µM)
Brucella abortus; Brucella abortus
  MIC: 0.5 µg/mL (≈ 1.38 µM)
Yersinia pestis; Yersinia pestis
  MIC: ≤ 0.25 µg/mL
Francisella tularensis; Francisella tularensis
  MIC: ≤ 0.125 µg/mL
Bacillus anthracis; Bacillus anthracis
  MIC: ≤ 0.25 µg/mL
Brucella suis
  MIC: 0.25 µg/mL (≈ 0.692 µM)
Brucella suis; Brucella suis
  MIC: 0.5 µg/mL (≈ 1.38 µM)

— patent US10238661B2, “Fused, spirocyclic heteroaromatic compounds for the treatment of bacterial infections” (priority 2014, dated 2019)
